Assay results as given in ChEMBL document CHEMBL5150017, “Mechanism of Action and Structure-Activity Relationship of α-Conotoxin Mr1.1 at the Human α9α10 Nicotinic Acetylcholine Receptor” (J Med Chem, 2022).
Activity calls are given as the source filed them. The calls are words filed in the database; no cut-off is given here. Positions of bridges follow the written chain, without caps; N, C: chain ends. Residues, ends and D or L forms follow the SMILES beside them.

What was measured:
[1] = biological target: T1, Neuronal acetylcholine receptor; alpha9/alpha10 (Homo sapiens) (UniProt Q9UGM1+Q9GZZ6); test: Antagonist activity at human alpha9alpha10 nAChR expressed in Xenopus laevis oocytes assessed as inhibition of ACh-induced current amplitude at -80 mV holding potential at 10 uM by two-electrode voltage clamp method; type: cell-based; details: Oocyte
[2] = biological target: Neuronal acetylcholine receptor subunit alpha-7 (Rattus norvegicus) (UniProt Q05941); test: Inhibition of rat neuronal alpha7 nAChR expressed in Xenopus laevis oocytes assessed as inhibition of ACh-induced current amplitude at 1 uM by two-electrode voltage clamp method; type: cell-based; details: Oocyte, filed as antagonist
[3] = biological target: T2, Neuronal acetylcholine receptor; alpha4/beta2 (Homo sapiens) (UniProt P17787+P43681); test: Antagonist activity at human alpha4beta2 nAChR expressed in Xenopus laevis oocytes assessed as inhibition of ACh-induced current amplitude at -80 mV holding potential at 1 uM by two-electrode voltage clamp method; type: cell-based; details: Oocyte, filed as antagonist
[4] = biological target: T1, Neuronal acetylcholine receptor; alpha9/alpha10 (Homo sapiens); test: Antagonist activity at human alpha9alpha10 nAChR expressed in Xenopus laevis oocytes assessed as inhibition of ACh-induced current amplitude at -80 mV holding potential at 1 uM by two-electrode voltage clamp method; type: cell-based; details: Oocyte
[5] = biological target: T3, Neuronal acetylcholine receptor; alpha3/beta2 (Homo sapiens, UniProt P17787+P32297); test: Antagonist activity at human alpha3beta2 nAChR expressed in Xenopus laevis oocytes assessed as inhibition of ACh-induced current amplitude at -80 mV holding potential at 1 uM by two-electrode voltage clamp method; type: cell-based; details: Oocyte
[6] = biological target: T4, Neuronal acetylcholine receptor; alpha3/beta4 (Homo sapiens) (UniProt P30926+P32297); test: Antagonist activity at human alpha3beta4 nAChR expressed in Xenopus laevis oocytes assessed as inhibition of ACh-induced current amplitude at -80 mV holding potential at 1 uM by two-electrode voltage clamp method; type: cell-based; details: Oocyte, filed as antagonist
[7] = biological target: T5, Neuronal acetylcholine receptor subunit alpha-7 (Homo sapiens, UniProt P36544); test: Antagonist activity at human alpha7 nAChR expressed in Xenopus laevis oocytes assessed as inhibition of ACh-induced current amplitude at -80 mV holding potential at 1 uM by two-electrode voltage clamp method; type: cell-based; details: Oocyte
[8] = biological target: T2, Neuronal acetylcholine receptor; alpha4/beta2 (Homo sapiens); test: Antagonist activity at human alpha4beta2 nAChR expressed in Xenopus laevis oocytes assessed as inhibition of ACh-induced current amplitude at -80 mV holding potential at 10 uM by two-electrode voltage clamp method; type: cell-based; details: Oocyte, filed as antagonist
[9] = biological target: T3, Neuronal acetylcholine receptor; alpha3/beta2; test: Antagonist activity at human alpha3beta2 nAChR expressed in Xenopus laevis oocytes assessed as inhibition of ACh-induced current amplitude at -80 mV holding potential at 10 uM by two-electrode voltage clamp method; type: cell-based; details: Oocyte, filed as antagonist
[10] = biological target: T4, Neuronal acetylcholine receptor; alpha3/beta4 (Homo sapiens); test: Antagonist activity at human alpha3beta4 nAChR expressed in Xenopus laevis oocytes assessed as inhibition of ACh-induced current amplitude at -80 mV holding potential at 10 uM by two-electrode voltage clamp method; type: cell-based; details: Oocyte, filed as antagonist
[11] = biological target: T5, Neuronal acetylcholine receptor subunit alpha-7; test: Antagonist activity at human alpha7 nAChR expressed in Xenopus laevis oocytes assessed as inhibition of ACh-induced current amplitude at -80 mV holding potential at 10 uM by two-electrode voltage clamp method; type: cell-based; details: Oocyte, filed as antagonist
[12] = biological target: T3, Neuronal acetylcholine receptor; alpha3/beta2; test: Antagonist activity at human alpha3beta2 nAChR expressed in Xenopus laevis oocytes assessed as inhibition of ACh-induced current amplitude at -80 mV holding potential in presence of BAPTA-AM at 10 uM by two-electrode voltage clamp method; type: cell-based; details: Oocyte, filed as antagonist
[13] = biological target: T4, Neuronal acetylcholine receptor; alpha3/beta4 (Homo sapiens); test: Antagonist activity at human alpha3beta4 nAChR expressed in Xenopus laevis oocytes assessed as inhibition of ACh-induced current amplitude at -80 mV holding potential in presence of BAPTA-AM at 10 uM by two-electrode voltage clamp method; type: cell-based; details: Oocyte, filed as antagonist
Oocyte = test: Antagonist activity at rat alpha9alpha10 nAChR expressed in Xenopus laevis oocytes assessed as inhibition of ACh-induced current amplitude at 10 uM by two-electrode voltage clamp method; type: cell-based; details: filed as antagonist
[14] = biological target: Neuronal acetylcholine receptor; alpha9/alpha10 (Homo sapiens, UniProt Q9GZZ6+Q9UGM1); test: Antagonist activity at human alpha9alpha10 nAChR expressed in Xenopus laevis oocytes assessed as inhibition of ACh-induced current amplitude at -80 mV holding potential by two-electrode voltage clamp method; type: cell-based, Oocyte
[15] = biological target: T3, Neuronal acetylcholine receptor; alpha3/beta2; test: Antagonist activity at human alpha3beta2 nAChR expressed in Xenopus laevis oocytes assessed as inhibition of ACh-induced current amplitude at -80 mV holding potential by two-electrode voltage clamp method; type: cell-based, Oocyte
[16] = Antagonist activity at rat alpha9alpha10 nAChR expressed in Xenopus laevis oocytes assessed as inhibition of ACh-induced current amplitude by two-electrode voltage clamp method; type: cell-based; details: Oocyte
[17] = biological target: T1, Neuronal acetylcholine receptor; alpha9/alpha10 (Homo sapiens); test: Antagonist activity at human alpha9alpha10 nAChR expressed in Xenopus laevis oocytes assessed as inhibition of ACh-induced current amplitude at -80 mV holding potential at 100 nM by two-electrode voltage clamp method; type: cell-based; details: Oocyte

T5 sequence (P36544 whole entry): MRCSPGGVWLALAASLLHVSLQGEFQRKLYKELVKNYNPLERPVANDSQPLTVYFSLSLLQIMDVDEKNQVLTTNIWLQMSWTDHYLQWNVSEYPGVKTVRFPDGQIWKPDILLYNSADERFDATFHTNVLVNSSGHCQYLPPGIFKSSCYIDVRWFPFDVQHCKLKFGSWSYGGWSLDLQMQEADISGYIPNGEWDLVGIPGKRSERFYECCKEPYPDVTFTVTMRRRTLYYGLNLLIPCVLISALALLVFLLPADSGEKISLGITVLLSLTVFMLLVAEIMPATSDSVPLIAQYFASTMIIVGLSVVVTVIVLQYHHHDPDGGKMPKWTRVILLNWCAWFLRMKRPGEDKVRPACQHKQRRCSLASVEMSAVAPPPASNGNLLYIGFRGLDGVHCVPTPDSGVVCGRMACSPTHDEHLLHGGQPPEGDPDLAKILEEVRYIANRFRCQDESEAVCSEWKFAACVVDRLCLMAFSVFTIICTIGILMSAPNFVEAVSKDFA
T3 sequence (P17787 whole entry): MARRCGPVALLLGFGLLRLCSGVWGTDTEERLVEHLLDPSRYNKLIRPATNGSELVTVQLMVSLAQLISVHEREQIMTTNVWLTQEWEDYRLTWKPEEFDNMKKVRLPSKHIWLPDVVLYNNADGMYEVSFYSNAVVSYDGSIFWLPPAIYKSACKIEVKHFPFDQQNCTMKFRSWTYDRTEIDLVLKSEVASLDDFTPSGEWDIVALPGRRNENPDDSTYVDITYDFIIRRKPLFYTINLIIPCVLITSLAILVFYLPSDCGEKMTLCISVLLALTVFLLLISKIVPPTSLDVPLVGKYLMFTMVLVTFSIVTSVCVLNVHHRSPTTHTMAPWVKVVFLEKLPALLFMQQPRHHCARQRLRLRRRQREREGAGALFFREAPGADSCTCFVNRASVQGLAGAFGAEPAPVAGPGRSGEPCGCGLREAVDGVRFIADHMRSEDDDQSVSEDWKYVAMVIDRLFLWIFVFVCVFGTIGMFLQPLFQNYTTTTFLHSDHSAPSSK
T3 sequence (P32297 whole entry): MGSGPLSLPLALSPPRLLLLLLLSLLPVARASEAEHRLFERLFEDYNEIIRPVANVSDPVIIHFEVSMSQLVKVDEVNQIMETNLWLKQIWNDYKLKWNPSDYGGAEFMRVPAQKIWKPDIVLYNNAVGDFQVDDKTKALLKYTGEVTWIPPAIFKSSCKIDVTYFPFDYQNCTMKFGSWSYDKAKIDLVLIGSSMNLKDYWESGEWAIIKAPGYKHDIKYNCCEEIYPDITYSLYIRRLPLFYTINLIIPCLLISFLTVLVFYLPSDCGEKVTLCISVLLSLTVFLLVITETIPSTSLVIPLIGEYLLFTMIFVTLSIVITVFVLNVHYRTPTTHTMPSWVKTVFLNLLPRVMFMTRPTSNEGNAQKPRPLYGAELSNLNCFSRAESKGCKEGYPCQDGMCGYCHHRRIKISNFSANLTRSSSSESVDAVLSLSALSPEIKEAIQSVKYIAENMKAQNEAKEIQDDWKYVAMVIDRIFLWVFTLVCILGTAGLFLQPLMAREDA
Chain of Neuronal acetylcholine receptor subunit alpha-7 (Rattus norvegicus) (Q05941 whole entry): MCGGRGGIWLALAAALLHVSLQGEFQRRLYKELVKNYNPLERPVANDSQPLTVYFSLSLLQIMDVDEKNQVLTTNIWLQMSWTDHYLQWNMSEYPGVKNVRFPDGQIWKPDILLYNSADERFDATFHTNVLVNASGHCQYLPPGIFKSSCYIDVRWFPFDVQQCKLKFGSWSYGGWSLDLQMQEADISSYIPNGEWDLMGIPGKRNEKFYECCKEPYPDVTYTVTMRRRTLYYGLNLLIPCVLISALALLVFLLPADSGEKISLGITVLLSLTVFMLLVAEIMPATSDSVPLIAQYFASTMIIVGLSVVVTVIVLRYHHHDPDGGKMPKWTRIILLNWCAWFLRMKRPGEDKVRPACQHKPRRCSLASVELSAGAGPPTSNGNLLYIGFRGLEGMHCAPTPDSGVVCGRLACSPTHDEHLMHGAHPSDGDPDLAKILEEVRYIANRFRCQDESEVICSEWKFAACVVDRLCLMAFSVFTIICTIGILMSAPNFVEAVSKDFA
Chain of Neuronal acetylcholine receptor; alpha9/alpha10 (Q9UGM1 whole entry): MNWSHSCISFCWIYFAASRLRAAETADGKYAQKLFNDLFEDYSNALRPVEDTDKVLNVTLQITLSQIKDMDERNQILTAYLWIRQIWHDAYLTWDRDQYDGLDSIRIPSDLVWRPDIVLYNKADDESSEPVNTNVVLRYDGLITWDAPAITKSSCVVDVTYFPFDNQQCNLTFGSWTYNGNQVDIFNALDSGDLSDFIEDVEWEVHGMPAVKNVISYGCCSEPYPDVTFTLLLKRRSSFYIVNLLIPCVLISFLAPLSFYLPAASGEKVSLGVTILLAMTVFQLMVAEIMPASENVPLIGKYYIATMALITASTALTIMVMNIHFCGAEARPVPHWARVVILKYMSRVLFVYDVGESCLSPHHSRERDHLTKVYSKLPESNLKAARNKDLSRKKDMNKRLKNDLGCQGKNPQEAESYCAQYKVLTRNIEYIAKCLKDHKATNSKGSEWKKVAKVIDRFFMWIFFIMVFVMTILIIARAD
Chain of Neuronal acetylcholine receptor; alpha9/alpha10 (Q9GZZ6 whole entry): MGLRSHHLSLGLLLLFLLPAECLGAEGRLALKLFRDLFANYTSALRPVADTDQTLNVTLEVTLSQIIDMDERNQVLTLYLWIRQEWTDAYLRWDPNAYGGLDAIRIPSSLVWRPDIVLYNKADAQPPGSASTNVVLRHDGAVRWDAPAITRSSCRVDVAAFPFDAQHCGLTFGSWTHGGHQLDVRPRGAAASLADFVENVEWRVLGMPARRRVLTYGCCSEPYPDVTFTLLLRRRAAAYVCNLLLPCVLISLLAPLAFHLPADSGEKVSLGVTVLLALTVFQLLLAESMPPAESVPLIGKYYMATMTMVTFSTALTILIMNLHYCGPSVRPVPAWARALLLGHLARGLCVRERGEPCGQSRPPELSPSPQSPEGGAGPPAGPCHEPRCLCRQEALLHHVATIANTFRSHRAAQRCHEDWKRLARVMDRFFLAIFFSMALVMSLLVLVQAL

CC[C@H](C)[C@@H]1NC(=O)[C@H](CC(=O)O)NC(=O)[C@@H]2CCCN2C(=O)[C@H](CC(N)=O)NC(=O)[C@H](CC(N)=O)NC(=O)[C@H](C(C)C)NC(=O)[C@H](CO)NC(=O)[C@@H]2CSSC[C@H](NC(=O)CN)C(=O)N[C@@H](CSSC[C@@H](C(N)=O)NC1=O)C(=O)N[C@@H](CO)C(=O)N[C@@H](C)C(=O)N1CCC[C@H]1C(=O)N[C@@H](C)C(=O)N2 (H-GCCSAPACSVNNPDIC-NH2; disulfide 2-8, 3-16)
inhibition [1]: 20%

CC[C@H](C)[C@@H]1NC(=O)[C@H](CC(=O)O)NC(=O)[C@@H]2CCCN2C(=O)[C@H](CC(N)=O)NC(=O)[C@H](CC(N)=O)NC(=O)[C@H](C(C)C)NC(=O)[C@H](CO)NC(=O)[C@@H]2CSSC[C@H](NC(=O)CN)C(=O)N[C@@H](CSSC[C@@H](C(N)=O)NC1=O)C(=O)N[C@@H](CO)C(=O)N[C@@H](Cc1cnc[nH]1)C(=O)N1CCC[C@H]1C(=O)N[C@@H](C)C(=O)N2 (H-GCCSHPACSVNNPDIC-NH2; disulfide 2-8, 3-16)
inhibition [2]: 65% | inhibition [3]: Active | inhibition ([4]; filed as antagonist): 95% | inhibition [5]: 90% | inhibition [6]: 60% | inhibition [7]: 25% | inhibition [8]: 40% | inhibition ([1]; filed as antagonist): > 90% | inhibition [9]: > 90% | inhibition [10]: > 90% | inhibition [11]: 80% | inhibition [12]: 50% | inhibition [13]: 50% | inhibition (Oocyte): 100% | IC50 [14]: 0.092 µM | IC50 [15]: 0.219 µM | IC50 [16]: 0.0083 µM

CC[C@H](C)[C@@H]1NC(=O)[C@H](CC(=O)O)NC(=O)[C@@H]2CCCN2C(=O)[C@H](CC(N)=O)NC(=O)[C@H](CC(N)=O)NC(=O)[C@H](Cc2ccc(O)cc2)NC(=O)[C@H](CO)NC(=O)[C@@H]2CSSC[C@H](NC(=O)CN)C(=O)N[C@@H](CSSC[C@@H](C(N)=O)NC1=O)C(=O)N[C@@H](CO)C(=O)N[C@@H](Cc1cnc[nH]1)C(=O)N1CCC[C@H]1C(=O)N[C@@H](C)C(=O)N2 (H-GCCSHPACSYNNPDIC-NH2; disulfide 2-8, 3-16)
inhibition [4]: 20% | inhibition [17]: 25%

CC[C@H](C)[C@@H]1NC(=O)[C@H](CC(=O)O)NC(=O)[C@@H]2CCCN2C(=O)[C@H](CC(N)=O)NC(=O)[C@H](CC(N)=O)NC(=O)[C@H](C(C)C)NC(=O)[C@H](CO)NC(=O)[C@@H]2CSSC[C@H](NC(=O)CN)C(=O)N[C@@H](CSSC[C@@H](C(N)=O)NC1=O)C(=O)N[C@@H](C)C(=O)N[C@@H](Cc1cnc[nH]1)C(=O)N1CCC[C@H]1C(=O)N[C@@H](C)C(=O)N2 (H-GCCAHPACSVNNPDIC-NH2; disulfide 2-8, 3-16)
inhibition ([1]; filed as antagonist): Active
